Results on 1 compound are retold here after ChEMBL document CHEMBL5113492, “Design, synthesis, and biological evalution of bifunctional inhibitors against Hsp90-HDAC6 interplay” (Eur J Med Chem, 2022).

Calls of active or inactive are those of the source. The rule behind the calls is not given here.

One series addresses T1, Histone deacetylase 7 (Homo sapiens, UniProt Q8WUI4).
T1 sequence (Q8WUI4 whole entry): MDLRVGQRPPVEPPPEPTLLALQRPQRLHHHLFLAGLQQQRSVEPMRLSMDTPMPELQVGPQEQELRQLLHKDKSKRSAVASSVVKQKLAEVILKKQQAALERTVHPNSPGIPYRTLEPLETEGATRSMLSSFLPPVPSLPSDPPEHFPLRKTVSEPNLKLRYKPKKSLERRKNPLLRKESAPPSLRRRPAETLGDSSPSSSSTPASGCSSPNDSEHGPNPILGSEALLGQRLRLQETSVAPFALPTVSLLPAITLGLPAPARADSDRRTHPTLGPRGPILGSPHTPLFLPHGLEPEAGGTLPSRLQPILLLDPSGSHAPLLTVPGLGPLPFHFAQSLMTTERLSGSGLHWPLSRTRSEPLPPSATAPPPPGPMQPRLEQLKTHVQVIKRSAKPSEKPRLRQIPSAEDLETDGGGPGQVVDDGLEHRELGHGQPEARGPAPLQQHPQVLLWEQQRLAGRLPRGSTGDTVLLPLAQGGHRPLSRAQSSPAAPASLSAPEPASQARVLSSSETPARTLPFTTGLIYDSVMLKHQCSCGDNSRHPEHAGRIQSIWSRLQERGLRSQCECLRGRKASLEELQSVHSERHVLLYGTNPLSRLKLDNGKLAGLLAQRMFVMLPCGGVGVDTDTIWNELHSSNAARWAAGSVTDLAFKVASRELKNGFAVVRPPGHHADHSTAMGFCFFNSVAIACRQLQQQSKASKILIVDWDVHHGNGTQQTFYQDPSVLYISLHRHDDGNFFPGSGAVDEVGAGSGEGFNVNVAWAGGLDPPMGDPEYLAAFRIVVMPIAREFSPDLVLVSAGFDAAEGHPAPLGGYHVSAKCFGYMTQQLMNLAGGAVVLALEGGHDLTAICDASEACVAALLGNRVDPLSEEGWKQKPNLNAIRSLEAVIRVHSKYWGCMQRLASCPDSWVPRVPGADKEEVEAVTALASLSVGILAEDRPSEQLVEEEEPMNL
The experiment in a line: Inhibition of HDAC7 (unknown origin) using fluorogenic substrate incubated for 30 mins by fluorescence plate reader.

The next series has as its target Histone deacetylase 3 (Homo sapiens, UniProt O15379). The experiment in a line: Inhibition of HDAC3 (unknown origin) using fluorogenic substrate incubated for 30 mins by fluorescence plate reader.
Series [1] concerns the target T2, Heat shock protein HSP90 (Homo sapiens) (UniProt P07900+P08238). The experiment in a line: Inhibition of HSP90 in human NCI-H1975 cells assessed as downregulation of Akt expression at 0.05 to 2 uM incubated for 24 hrs by western blot analysis. The series is classed as cell-based. Conditions: dose 0.05-2 µM, DDE = dose-dependent effect.
Series [2] has as its target T2, Heat shock protein HSP90 (Homo sapiens). Description: Inhibition of HSP90 in human NCI-H1975 cells assessed as upregulation of HSP70 expression at 0.05 to 2 uM incubated for 24 hrs by western blot analysis. The format is cell-based. The settings on record: dose 0.05-2 µM, DDE = dose-dependent effect. A general note: Immunoblotting shows a protein as a band on a membrane.

The target is the same in series [3]. The experiment in a line: Inhibition of HSP90 in human NCI-H1975 cells assessed as downregulation of Her2 expression at 2 uM incubated for 24 hrs by western blot analysis. The format is cell-based.
Series [4] has the same target. Description: Inhibition of HSP90 in human NCI-H1975 cells assessed as downregulation of Akt expression at 2 uM incubated for 24 hrs by western blot analysis. The series is classed as cell-based.
Series [5] has as its target Histone deacetylase 1 (Homo sapiens) (UniProt Q13547). Description: Inhibition of HDAC1 in human NCI-H1975 cells assessed as increase in acetylation of Histone H3 at 2 uM incubated for 24 hrs by western blot analysis. The series is classed as cell-based.
In series [6] the target is T3, Protein deacetylase HDAC6 (Homo sapiens) (UniProt Q9UBN7).
T3 sequence (whole entry): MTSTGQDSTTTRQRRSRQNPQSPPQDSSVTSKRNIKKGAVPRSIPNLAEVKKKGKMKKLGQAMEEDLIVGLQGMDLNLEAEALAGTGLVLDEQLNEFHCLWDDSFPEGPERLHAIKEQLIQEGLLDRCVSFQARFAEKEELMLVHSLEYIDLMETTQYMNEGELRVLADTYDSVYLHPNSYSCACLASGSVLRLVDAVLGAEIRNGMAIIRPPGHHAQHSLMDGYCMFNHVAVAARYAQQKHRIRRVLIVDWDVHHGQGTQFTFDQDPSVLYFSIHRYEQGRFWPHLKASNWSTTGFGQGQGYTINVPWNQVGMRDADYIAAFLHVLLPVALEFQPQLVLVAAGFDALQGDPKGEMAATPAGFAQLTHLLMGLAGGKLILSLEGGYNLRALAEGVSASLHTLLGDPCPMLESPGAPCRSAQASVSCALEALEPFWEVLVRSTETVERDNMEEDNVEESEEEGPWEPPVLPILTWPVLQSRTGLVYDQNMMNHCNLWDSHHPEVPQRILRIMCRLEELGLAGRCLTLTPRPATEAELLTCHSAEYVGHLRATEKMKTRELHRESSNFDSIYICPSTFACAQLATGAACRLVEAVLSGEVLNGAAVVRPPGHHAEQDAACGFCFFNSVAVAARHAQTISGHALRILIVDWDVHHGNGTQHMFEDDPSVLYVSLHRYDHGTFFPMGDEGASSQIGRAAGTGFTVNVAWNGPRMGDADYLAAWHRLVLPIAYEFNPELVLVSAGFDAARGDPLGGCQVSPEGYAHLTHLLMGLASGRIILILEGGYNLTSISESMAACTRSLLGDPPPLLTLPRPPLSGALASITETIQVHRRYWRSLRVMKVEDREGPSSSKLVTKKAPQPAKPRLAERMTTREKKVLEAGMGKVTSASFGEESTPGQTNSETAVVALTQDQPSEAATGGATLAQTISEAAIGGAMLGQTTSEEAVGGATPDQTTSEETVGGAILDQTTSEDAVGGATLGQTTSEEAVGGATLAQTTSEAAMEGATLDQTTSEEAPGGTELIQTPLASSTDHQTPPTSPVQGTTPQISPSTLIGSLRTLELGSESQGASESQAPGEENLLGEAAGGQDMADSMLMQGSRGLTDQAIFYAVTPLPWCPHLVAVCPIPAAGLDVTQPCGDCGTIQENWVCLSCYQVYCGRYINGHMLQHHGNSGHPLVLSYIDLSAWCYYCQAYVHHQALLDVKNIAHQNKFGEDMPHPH
Description: Inhibition of HDAC6 in human NCI-H1975 cells assessed as increase in acetylation of HSP90 at 2 uM incubated for 24 hrs by western blot analysis. The series is classed as cell-based.

The next series concerns NCI-H1975. Description: Antitumor activity against NSG mouse xenografted with human NCI-H1975 cells assessed as reduction on tumor growth at 25 mg/kg,ip measured after 2 weeks. The format is functional, organism-based. On the technique in general: Xenograft models place foreign cells or tissue in a host animal.
The test system of another series is Mus musculus. Description: In vivo inhibition of HSP90 in human NCI-H1975 cells xenografted with NSG mouse assessed as downregulation of EGFR expression at 50 mg/kg,ip measured after 6 weeks by immunohistochemistry analysis. The series is classed as functional, organism-based.
Series [7] is described as follows: Toxicity in NSG mouse xenografted with human NCI-H1975 cells assessed as change in body weight at 50 mg/kg,ip measured after 6 weeks. The format is organism-based. The settings on record: in vivo, 1008 h.

Histone deacetylase 3, sequence (O15379 whole entry): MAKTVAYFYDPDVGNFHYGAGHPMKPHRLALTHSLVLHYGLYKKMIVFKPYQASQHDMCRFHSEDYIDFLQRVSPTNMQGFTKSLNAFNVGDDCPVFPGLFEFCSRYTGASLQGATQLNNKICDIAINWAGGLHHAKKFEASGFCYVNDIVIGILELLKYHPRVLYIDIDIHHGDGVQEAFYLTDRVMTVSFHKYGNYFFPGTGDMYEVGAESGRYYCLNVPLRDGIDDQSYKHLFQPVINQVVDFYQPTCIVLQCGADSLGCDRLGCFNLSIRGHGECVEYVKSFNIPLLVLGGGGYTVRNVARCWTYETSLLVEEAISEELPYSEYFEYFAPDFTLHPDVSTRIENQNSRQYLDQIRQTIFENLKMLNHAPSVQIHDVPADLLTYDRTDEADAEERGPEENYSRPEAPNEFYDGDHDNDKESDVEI
Histone deacetylase 1 (Homo sapiens), sequence (Q13547 whole entry): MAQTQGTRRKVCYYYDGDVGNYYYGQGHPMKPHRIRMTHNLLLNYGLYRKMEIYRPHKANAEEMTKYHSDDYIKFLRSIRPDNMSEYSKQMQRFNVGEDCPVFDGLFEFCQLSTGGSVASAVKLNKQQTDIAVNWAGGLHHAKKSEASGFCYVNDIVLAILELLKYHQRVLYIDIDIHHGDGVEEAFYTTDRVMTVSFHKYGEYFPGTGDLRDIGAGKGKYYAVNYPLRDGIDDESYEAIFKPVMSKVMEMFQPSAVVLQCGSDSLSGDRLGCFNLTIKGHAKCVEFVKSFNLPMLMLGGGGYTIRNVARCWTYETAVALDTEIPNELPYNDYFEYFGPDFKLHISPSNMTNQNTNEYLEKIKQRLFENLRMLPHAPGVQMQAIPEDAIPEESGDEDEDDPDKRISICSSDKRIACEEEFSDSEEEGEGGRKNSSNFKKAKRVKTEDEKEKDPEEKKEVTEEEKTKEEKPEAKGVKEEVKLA

On to `CC(C)c1cc(C(=O)N(C)Cc2ccc(C(=O)NO)cc2)c(O)cc1O`, for which the IC50 against Histone deacetylase 7 came to 1.69 µM; against Histone deacetylase 3 it was 1.54 µM. Also, the inhibition entry in [1] and in [2] was “Dde” throughout. Also, the inhibition result (in series [3]; in [4]; in series [5]; in series [6]; in the series with Mus musculus) was “Active” throughout. Further, the outcome in the series on NCI-H1975 was Active. The Activity entry in series [7] was “Non-Toxic”.

By IC50 is commonly meant the midpoint of a concentration-inhibition curve. Low values mean greater potency, high ones weaker potency.
